Patent US9902759B2, “BH3 peptides and methods of use thereof” (Dana-Farber Cancer Institute, Inc., priority 2002, dated 2018)
Ends that are not written are not given here.

Columns and labels:
[1] = target: T1, GST-BCL-2 (Homo sapiens, UniProt P10415); experiment: Fluorescence polarization binding of fluoresceinated BH3 peptides to GST-BCL-2; conditions: for Kd: 25 nM fluoresceinated peptide, GST-BCL-2 titration, 37° C., read-out: Kd (nM), BCL-2 Binding
T1 construct: a GST-BCL-2 fusion protein lacking the C-terminal transmembrane domain was utilized; made in house; host or cells: E. coli BL21 DE3
Description: (§1) To determine Kd for peptide binding to BCL-2, a GST-BCL-2 fusion protein lacking the C-terminal transmembrane domain was utilized. Peptides were synthesized with a fluorescein amino-terminus using an AHA linker. […] An increase in fluorescence polarization measured on a Perkin-Elmer LS 50B luminescence spectrophotometer was quantitated to calculate binding. A non-linear fit to a sigmoidal dose-response curve utilized the program Origin 6.0 to determine Kd. […] Data were fitted to a sigmoidal curve as above, and IC50 determined.
(§2) GST-BCL-2δC21 fusion proteins were induced in BL21 DE3 by 0.1 mM IPTG. The bacterial pellets were resuspended in lysis buffer (1 mg/ml lysozyme/1% Triton X-100/0.1 mg/ml PMSF/2 μg/ml aprotinin/2 μg/ml leupeptine/1 μg/ml pepstatin A in PBS) and sonicated. After centrifugation at 20,000×g for 20 min, the supernatant was applied to glutathione-agarose beads (Sigma). The beads were washed with PBS and treated with 50 mM glutathione/50 mM TrisHCl, pH8.0 to elute protein. Eluate was dialyzed against binding buffer and concentrated using Amicon centrifugal concentrating devices.

[2] = target: T2, BAK (Mus musculus, UniProt O08734); experiment: BAK oligomerization, BMH cross-linking and immunoblot; assay type: biochemical; conditions: 100 μM peptide, cross-linker BMH
T2 construct: capable of inducing an allosteric change in mitochondrial-resident BAK or BAX; from tissue
T2 sequence (O08734 1-209): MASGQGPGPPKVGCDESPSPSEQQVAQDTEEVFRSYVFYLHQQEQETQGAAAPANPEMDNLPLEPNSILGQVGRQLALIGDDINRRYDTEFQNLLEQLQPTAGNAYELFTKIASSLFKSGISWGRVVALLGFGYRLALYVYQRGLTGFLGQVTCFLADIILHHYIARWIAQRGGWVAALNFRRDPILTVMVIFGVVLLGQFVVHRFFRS
Procedure: (§3) 1,6-Bismaleimidohexane was obtained from Pierce (#22330). A 10 mM stock solution in DMSO was added to treated mitochondrial suspensions at a 1:11 dilution. Cross-linking took place for 30 minutes at room temperature, followed by centrifugation to pellet mitochondria. Pellets were dissolved in NuPAGE loading buffer (Invitrogen).
(§4) Antibodies used for immunoblot analysis included anti-cytochrome c (75981A, Pharmingen), anti-BAK (Upstate Biotechnology), and anti-BAX (N-20, Santa Cruz). Antibody detection was accomplished using enhanced chemiluminescence (Western Lightning, Perkin-Elmer).

[3] = Circular dichroism, α-helical content; assay type: physicochemical; conditions: CD, 50 mM potassium phosphate pH 7, 20° C.
Procedure: Circular dichroism (CD) spectra were obtained on a Jasco J-710 spectropolarimeter at 20° C. using the following standard measurement parameters: wavelength, 190-260 nm; step resolution, 0.5 nm; speed, 20 nm/sec; accumulations, 10; response, 1 sec; band width, 1 nm; path length, 0.1 cm. Stock solutions of peptide were dissolved in deionized water and concentrations determined by amino acid analysis. Samples were then diluted in 50 mM potassium phosphate pH 7 to a calculated final concentration of 50 μM. The CD spectrum of each sample was measured in triplicate and a background spectrum of diluent alone was subtracted. For comparison, the subtracted CD spectra were normalized to 35 μM based on repeat peptide concentration determination by amino acid analysis of the diluted peptide solutions. The α-helical content of each peptide was calculated by dividing the mean residue ellipticity [q]222obs by the reported [q]222obs for a model helical decapeptide (Yang et al., 1986).

[4] = system: mitochondria; experiment: Cytochrome c release from isolated mitochondria (ELISA); assay type: biochemical, mouse; conditions: for cytochrome c release by peptide or protein alone: BIDBH3 at 10 μM, other concentrations not stated
Procedure: (§5) Mouse liver mitochondria were isolated from age-matched wt or Bak −/− mice. Livers were diced, subjected to Dounce rotary Teflon pestle disruption, then homogenized using a Kinematica Polytron homognizer. Following suspension in isolation buffer (250 mM sucrose, 10 mM Tris-HCl pH 7.4, 0.1 mM EGTA), mitochondria were isolated by differential centrifugation steps, followed by two washes in isolation buffer. Mitochondria from FL5.12 cells were isolated by cell disruption followed by differential centrifugation and washing as above. Cell disruption was performed either by a Kinematika Polytron homogenizer or by a combination of Dounce homogenization followed by 6-10 expulsions through a 27 gauge needle.
(§6) Mitochondria at a protein concentration of 0.5 mg/ml were treated at room temperature in experimental buffer (125 mM KCl, 10 mM Tris-MOPS pH 7.4, 5 mM glutamate, 2.5 mM malate, 1 mM KPO4, 10 µM EGTA-Tris pH 7.4). Percent release was quantitated using a colorimetric ELISA (MCTC0, R&D Systems). In all experiments, treatments with DMSO were used as a control for solvent activity.

[5] = system: BCL-2 overexpressing mitochondria; experiment: Cytochrome c release from BCL-2 overexpressing FL5.12 mitochondria; assay type: biochemical; conditions: for capacity to overcome BCL-2 protection: with subliminal myrBID (30 nM); for cytochrome c release from mitochondria with overexpressed BCL-2, agent alone: 10 μM BIDBH3, 1 μM BIMBH3, 30 nM myrBID
Procedure: as §5, §6

[6] = target: T1, GST-BCL-2; experiment: BH3 peptide displacement from GST-BCL-2 by fluorescence polarization; assay type: binding; conditions: for IC50: read-out: IC50 (nM), BID Displacement
Description: as §1, §2

[7] = target: T3, BAX (Mus musculus, UniProt Q07813); experiment: BAX oligomerization in mitochondria from FL5.12 cells, BMH cross-linking; assay type: biochemical; conditions: 100 μM peptide
T3 construct: mitochondria isolated from cultured FL5.12 cells, which contain both BAX and BAK; endogenous in cells; host or cells: mitochondria isolated from FL5.12 cells
Procedure: as §3, §4

T1 sequence (P10415 1-218 limits assumed): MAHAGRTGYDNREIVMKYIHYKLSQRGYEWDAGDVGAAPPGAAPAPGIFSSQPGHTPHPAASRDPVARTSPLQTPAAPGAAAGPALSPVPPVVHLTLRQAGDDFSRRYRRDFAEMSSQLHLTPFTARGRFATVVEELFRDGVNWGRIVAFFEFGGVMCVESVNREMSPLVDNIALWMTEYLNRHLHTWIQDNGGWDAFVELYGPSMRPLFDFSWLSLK
T3 sequence (Q07813 whole entry): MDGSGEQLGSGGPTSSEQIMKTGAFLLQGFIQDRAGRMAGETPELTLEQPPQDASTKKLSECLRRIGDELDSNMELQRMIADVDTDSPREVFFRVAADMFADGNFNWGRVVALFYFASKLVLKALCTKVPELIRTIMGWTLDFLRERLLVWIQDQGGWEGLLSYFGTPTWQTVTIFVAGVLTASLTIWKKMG

## CSCC[C@H](NC(=O)[C@H](CCCNC(=N)N)NC(=O)[C@H](CCCNC(=N)N)NC(=O)[C@H](CC(C)C)NC(=O)[C@H](CCC(=O)O)NC(=O)[C@H](CCCNC(=N)N)NC(=O)CNC(=O)[C@H](Cc1ccc(O)cc1)NC(=O)[C@H](CCCNC(=N)N)NC(=O)[C@H](CCC(N)=O)NC(=O)[C@H](C)NC(=O)[C@H](C)NC(=O)[C@H](Cc1c[nH]c2ccccc12)NC(=O)[C@H](CC(C)C)NC(=O)[C@@H](N)CC(N)=O)C(=O)N[C@@H](CO)C(=O)N[C@@H](CC(=O)O)C(=O)N[C@@H](CCC(=O)O)C(=O)N[C@@H](Cc1ccccc1)C(=O)N[C@H](C(=O)N[C@@H](CC(=O)O)C(=O)N[C@@H](CO)C(=O)N[C@@H](Cc1ccccc1)C(=O)N[C@@H](CCCCN)C(=O)N[C@@H](CCCCN)C(=O)O)C(C)C [BADBH3]
[1]
  affinity for BCL-2 relative to BIDBH3 peptide: approximately 5 fold
[2]
  BAK oligomerization: unable to induce BAK oligomerization
[3]
  % Helicity (222 nm): 23.9%
[4]
  cytochrome c release by peptide or protein alone: inactive in this assay
[4]; even at 100 μM
  cytochrome c release by peptide alone: cannot activate BAK or release cytochrome c
[5]; 100 μM BADBH3
  restoration of cytochrome c release to BIDBH3 and BIMBH3: to levels observed for wt mitochondria
[5]; 200 μM BADBH3
  restoration of sensitivity to myrBID: markedly restores their sensitivity to even 1 nM myrBID
[5]; FL5.12-BCL-2 mitochondria
  lowest concentration with measurable activity in inhibiting BCL-2 and enabling cytochrome c release by myrBID: 1 µM
[5]
  capacity to overcome BCL-2 protection: most prominently demonstrates the capacity to overcome BCL-2 protection
[6]
  displacement of BIDBH3 from BCL-2: can efficiently displace pre-bound BIDBH3 peptide from BCL-2
[7]
  oligomerization of BAX: not

## CC[C@H](C)[C@H](NC(=O)[C@H](CC(N)=O)NC(=O)[C@H](CCCNC(=N)N)NC(=O)[C@@H](NC(=O)[C@@H](NC(=O)[C@H](CC(=O)O)NC(=O)[C@@H](N)CCC(=O)O)[C@@H](C)CC)[C@@H](C)CC)C(=O)N[C@@H](C)C(=O)N[C@@H](CCCNC(=N)N)C(=O)N[C@@H](Cc1c[nH]cn1)C(=O)N[C@@H](CC(C)C)C(=O)N[C@@H](C)C(=O)N[C@@H](CCC(N)=O)C(=O)N[C@H](C(=O)NCC(=O)N[C@@H](CC(=O)O)C(=O)N[C@@H](CO)C(=O)N[C@@H](CCSC)C(=O)N[C@@H](CC(=O)O)C(=O)N[C@@H](CCCNC(=N)N)C(=O)O)C(C)C [BIDBH3]
[2]
  BAK oligomerization: induces BAK oligomerization
[3]
  % Helicity (222 nm): 19.5%
[4]
  concentration required for near total release of cytochrome c: 10 µM
  cytochrome c release by peptide or protein alone: capable of initiating cytochrome c release
[4]; 100 μM peptide, liver mitochondria
  cytochrome c release, Bak +/+ vs. −/− mitochondria: BAK is required for the release of cytochrome c
[5]
  cytochrome c release from mitochondria with overexpressed BCL-2, agent alone: failing to release cytochrome c
[6]
  displacement of BADBH3 from BCL-2: does not effectively displace BADBH3 from BCL-2
[7]
  oligomerization of BAX: could also induce oligomerization of BAX

## CC[C@H](C)[C@H](NC(=O)[C@H](CS)NC(=O)[C@H](C)NC(=O)[C@H](CC(C)C)NC(=O)[C@H](CCCNC(=N)N)NC(=O)[C@H](CC(C)C)NC(=O)[C@H](C)NC(=O)[C@H](CC(C)C)NC(=O)[C@H](C)NC(=O)[C@H](CC(=O)O)NC(=O)[C@H](CO)NC(=O)CNC(=O)[C@H](CCC(=O)O)NC(=O)[C@@H](N)CCSC)C(=O)NCC(=O)N[C@@H](CC(=O)O)C(=O)N[C@@H](CCC(=O)O)C(=O)N[C@@H](CCSC)C(=O)N[C@@H](CC(=O)O)C(=O)N[C@H](C(=O)O)C(C)C [BIKBH3]
[1]
  Kd: 485 nM
[3]
  % Helicity (222 nm): 8.5%
[5]; 100 μM BIKBH3
  restoration of cytochrome c release by myrBID: restore near-total cytochrome c release
[5]
  capacity to overcome BCL-2 protection: significant, but lesser, potency
[6]
  displacement of BIDBH3 from BCL-2: demonstrate the ability to displace BIDBH3
  IC50: 4920 nM

## CC[C@H](C)[C@H](NC(=O)[C@H](CCCCN)NC(=O)[C@H](CCCNC(=N)N)NC(=O)[C@H](CC(C)C)NC(=O)[C@H](CCC(N)=O)NC(=O)[C@H](C)NC(=O)[C@H](C)NC(=O)[C@H](Cc1ccccc1)NC(=O)[C@H](CCC(=O)O)NC(=O)[C@@H]1CCCN1C(=O)[C@@H]1CCCN1C(=O)[C@H](CC(C)C)NC(=O)[C@H](CCC(=O)O)NC(=O)[C@H](C)N)C(=O)NCC(=O)N[C@@H](CC(=O)O)C(=O)N[C@@H](CCCCN)C(=O)N[C@H](C(=O)N[C@@H](Cc1ccc(O)cc1)C(=O)N[C@@H](CS)C(=O)O)C(C)C [NOXAABH3]
[1]
  binding to BCL-2: did not bind detectably
[3]
  % Helicity (222 nm): 5.1%
[6]
  displacement of BIDBH3 from BCL-2: did not bind detectably to BCL-2 or displace BIDBH3 from BCL-2

## CC[C@H](C)[C@H](NC(=O)[C@H](CCCNC(=N)N)NC(=O)[C@H](CCCNC(=N)N)NC(=O)[C@H](CC(C)C)NC(=O)[C@H](CCC(N)=O)NC(=O)[C@H](C)NC(=O)[C@H](CS)NC(=O)[C@H](CCC(=O)O)NC(=O)[C@H](CC(=O)O)NC(=O)[C@H](CCCCN)NC(=O)[C@H](CC(C)C)NC(=O)[C@H](CC(=O)O)NC(=O)[C@H](C)NC(=O)[C@@H]1CCCN1)C(=O)NCC(=O)N[C@@H](CC(=O)O)C(=O)N[C@@H](CCCCN)C(=O)N[C@H](C(=O)N[C@@H](CC(N)=O)C(=O)N[C@@H](CC(C)C)C(=O)O)C(C)C [NOXABBH3]
[1]
  binding to BCL-2: did not bind detectably
[3]
  % Helicity (222 nm): 11.6%
[6]
  displacement of BIDBH3 from BCL-2: did not bind detectably to BCL-2 or displace BIDBH3 from BCL-2

## VIPMAAVKQALREAGDEFEL [BCLXBH3]
[1]
  Kd: > 1000 nM
[6]
  IC50: > 30000 nM

B1: myrBID: recombinant p7/myrp15, myristoylated BID complex (protein, UniProt P55957 1-195, looked up)
BH3-interacting domain death …: MDCEVNNGSSLRDECITNLLVFGFLQSCSDNSFRRELDALGHELPVLAPQWEGYDELQTDGNRSSHSRLGRIEADSESQEDIIRNIARHLAQVGDSMDRSIPPGLVNGLALQLRNTSRSEEDRNRDLATALEQLLQAYPRDMEKEKTMLVLALLLAKKVASHTPSLLRDVFHTTVNFINQNLRTYVRSLARNGMD
modifications: myristoylated; p7/p15 cleaved complex
[4]
  concentration required for near total release of cytochrome c: 0.01 µM
  cytochrome c release by peptide or protein alone: capable of initiating cytochrome c release
[5]
  cytochrome c release from mitochondria with overexpressed BCL-2, agent alone: failing to release cytochrome c
